{"source": "patent US20090197269A1", "about": "“Translocation and mutant CSF1R Kinase in human leukemia” (CELL SIGNALING TECHNOLOGY, INC., priority 2006, published 2009)", "key": {"[1]": {"tested_on": "CMK", "assay": "MTT cell proliferation assay, control cells", "assay_type": "cell-based, human", "settings": "control cells (CMK negative control), 48 hour MTT"}, "[2]": {"tested_on": "STAT5 and ERK", "assay": "Western blot of downstream target phosphorylation in MKPL-1 cells", "assay_type": "cell-based, human", "settings": "Imatinib"}}, "data": [{"smiles": "Cc1ccc(NC(=O)c2ccc(CN3CCN(C)CC3)cc2)cc1Nc1nccc(-c2cccnc2)n1", "note": "[Imatinib]", "values": [{"measurement": "inhibition of cell growth", "setting": "[1]", "result": "the control cells are not"}, {"measurement": "phosphorylation of downstream target STAT5 and ERK", "setting": "[2]", "result": "inhibited as well"}]}]}
